{"source": "patent US7745473B2", "about": "“Indole derivative for alkylating specific base sequence of DNA and alkylating agent and drug containing the derivative” (Kyoto University, priority 2004, dated 2010)", "key": {"[1]": {"test_system": "DNA fragment (SEQ ID NO:11) derived from pQBI63", "assay": "DNA alkylation of 5′-Texas Red-labeled DNA fragment (994 bp)", "format": "biochemical", "conditions": "FIG. 5", "description": "A 5′-Texas Red-labeled DNA fragment (994 bp) (pQBI63; SEQ ID NO:11) was prepared by a PCR method using a 20-base-pair primer, i.e., 5′-[…]-3′ (SEQ ID NO:12), and a 5′-Texas Red-labeled 20-base-pair primer, i.e., 5′-TexRed-[…]-3′ (SEQ ID NO:13), pQBI63 plasmid being used as a template.\n(§1) Analysis by polyacrylamide gel electrophoresis was performed by the following process: A standard reaction solution containing the 5′-Texas Red-end-labeled DNA fragment (10 nM), DMF (10% (v/v)), and an agent having a concentration described above in a sodium phosphate buffer (5 mM, total volume: 10 μL, pH=7.0) was charged into a microfuge tube (Eppendorf) and left standing at 23° C. for 8 hours. After completion of the reaction, the reaction was quenched by the addition of calf thymus DNA (1 mM, 1 μL). The resulting mixture was shaken at 90° C. for 5 minutes. The DNA obtained by centrifugation under reduced pressure was dissolved by the addition of 8 μl, of loading dye (fushin red solution in DMF), shaken at 94° C. for 20 minutes, and then immediately cooled to 0° C. A 2-μL aliquot was separated electrophoretically on a 6% denaturing polyacrylamide gel using a Hitachi 5500-S DNA sequencer. The following tests were conducted in a similar way. […]"}, "[2]": {"test_system": "727-bp DNA fragment (SEQ ID NO:14)", "assay": "Sequence-specific alkylation of DNA by polyamide heterodimer", "format": "biochemical", "conditions": "727-bp fragment, FIG. 7", "description": "A 5′-Texas Red-labeled 727-bp DNA fragment (SEQ ID NO:14) was prepared by a PCR method using a 5′-Texas Red-labeled 20-base-pair primer, i.e., 5′-TexRed-[…]-3′ (SEQ ID NO:15), and a 21-base-pair primer, i.e., 5′-[…]-3′ (SEQ ID NO:16), a plasmid containing MLP into which the code base sequence of human β-globin was integrated being used as a template.\nas §1"}, "[3]": {"test_system": "DNA fragment (446 bp; SEQ ID NO:17) containing 24 repeats of a telomeric sequence", "assay": "DNA alkylation targeting telomeric sequence", "format": "biochemical", "conditions": "446 bp fragment, nanomolar concentrations, FIG. 8", "description": "A 5′-Texas Red-labeled 446-bp DNA fragment (SEQ ID NO:17 with a 24-times-repeated telomere sequence was prepared by a PCR method using a 5′-Texas Red-labeled 20-base pair primer, i.e., 5′-TexRed-[…]-3′ (SEQ ID NO:18), and a 20-base-pair primer, i.e., 5′-[…]-3′ (SEQ ID NO:19), pCR2.1 plasmid into which an oligomer having a repetitive telomere sequence was integrated from the cleavage site by EcoRI being used as a template. The resulting each DNA fragment was purified by filtration using Suprec-02. The concentration of each resulting product was determined by measuring UV absorption.\nas §1, with “C.” for “C. A 2-μL aliquot was separated electrophoretically on a 6% denaturing polyacrylamide gel using a Hitachi 5500-S DNA sequencer. The following tests were conducted in a similar way.”"}, "[4]": {"test_system": "long-chain DNA (λ-F10906; SEQ ID NO:8)", "assay": "DNA alkylation of 5′-Texas Red-labeled long-chain DNA, analysed by polyacrylamide gel electrophoresis", "format": "biochemical", "conditions": "λ-F10906, nanomolar concentrations, FIG. 4", "description": "A 5′-Texas Red-labeled DNA fragment (537 bp) (λ-F10906; SEQ ID NO:8) was prepared by a PCR method using a 5′-Texas Red-labeled 23-base-pair primer, i.e., 5′-TexRed-[…]-3′ (λ-DNA forward, 10960-10982; SEQ ID NO:9), and a 20-base-pair primer, i.e., 5′-[…]-3′ (λ-DNA reverse, 37007-37026; SEQ ID NO:10), λ-DNA being used as a template.\n(§2) Analysis by polyacrylamide gel electrophoresis was performed by the following process: A standard reaction solution containing the 5′-Texas Red-end-labeled DNA fragment (10 nM), DMF (10% (v/v)), and an agent having a concentration described above in a sodium phosphate buffer (5 mM, total volume: 10 μL, pH=7.0) was charged into a microfuge tube (Eppendorf) and left standing at 23° C. for 8 hours. After completion of the reaction, the reaction was quenched by the addition of calf thymus DNA (1 mM, 1 μL). The resulting mixture was shaken at 90° C. for 5 minutes. The DNA obtained by centrifugation under reduced pressure was dissolved by the addition of 8 μl, of loading dye (fushin red solution in DMF), shaken at 94° C. for 20 minutes, and then immediately cooled to 0° C. A 2-μL aliquot was separated electrophoretically on a 6% denaturing polyacrylamide gel using a Hitachi 5500-S DNA sequencer. The following tests were conducted in a similar way.\nThe reaction of compounds (3-2), (3-4), and (3-5) with DNA was studied using the long-chain DNA (λ-F10906; SEQ ID NO:8). The DNA-alkylating ability of each compound was evaluated."}, "[5]": {"test_system": "SH-SY-5Y (human neuroblast-derived cell)", "conditions": "read-out: 50% cell growth inhibitory concentration (IC50), 48 hours, 0.1% DMF", "description": "(§3) HCT-116 (human colon cancer-derived cell), HeLa (human cervical cancer-derived cell), HLC-2 (human lung cancer-derived cell), and SH-SY-5Y (human neuroblast-derived cell) were treated with AcImImPyPy-γ-ImPy-Indole-CBI (3-2) (10^−5 to 10^−8 M with 0.1% DMF) for 48 hours to evaluate the effect of the compound as an anticancer agent.\n(§4) Evaluation of anticancer activity was made by the following process: HCT-116, HeLa, HLC-2, and SH-SY-5Y cell lines were seeded into a 96-well flat bottom plate in complete media [RPMI1640 (HCT-116, SH-SY-5Y; Sigma-Aldrich Co.) each containing 10% fetal bovine serum and Dulbecco's […] (HeLa, HLC-2, 293T, WI-38; Sigma-Aldrich Co.)] at cell densities of 4.0×10^3, 3.6×10^3, 1.6×10^3, 7.0×10^2, 5.0×10^2, and 8.0×10^2 cells/well and were precultured for 24 hours in a CO2 incubator. The media were replaced with complete media containing 0.1% DMF and 10^−5 to 10^−8 M AcImImPyPy-γ-ImPy-Indole-CBI (3-2). Incubation was performed for 48 hours in the CO2 incubator. Then, 10 μL/well of a Cell Counting Kit-8 (Dojindo Laboratories) was added. The specimens were left standing for 2 hours in the CO2 incubator. Absorbance was measured with a microplate reader MPR-A4I (Tosoh Corp.)."}, "[6]": {"test_system": "HLC-2 (human lung cancer-derived cell)", "conditions": "read-out: 50% cell growth inhibitory concentration (IC50); HLC-2, 48 hours, 0.1% DMF", "description": "as §3, §4"}, "[7]": {"test_system": "cancerous cell lines versus normal cell lines", "conditions": "cancerous versus normal cell lines (293T, WI-38)", "description": "as §3, §4"}, "[8]": {"test_system": "HeLa (human cervical cancer-derived cell)", "conditions": "read-out: 50% cell growth inhibitory concentration (IC50), 48 hours, 0.1% DMF", "description": "as §3, §4"}, "[9]": {"test_system": "HCT-116 (human colon cancer-derived cell)", "conditions": "read-out: 50% cell growth inhibitory concentration (IC50); HCT-116, 48 hours, 0.1% DMF", "description": "as §3, §4"}, "[10]": {"test_system": "long-chain DNA (pUC-II; SEQ ID NO:4, pUC-I′; SEQ ID NO:1)", "assay": "DNA alkylation of 5′-Texas Red-labeled long-chain DNA, analysed by polyacrylamide gel electrophoresis", "format": "biochemical", "conditions": "8 hours, pUC-II and pUC-I′, FIG. 2", "description": "A 5′-Texas Red-labeled DNA fragment (450 bp) (pUC-I′, SEQ ID NO:1) was prepared by a PCR method using a 5′-Texas Red-labeled 20-base-pair primer, i.e., 5′-TexRed-[…]-3′ (pUC18 forward, 780-799; SEQ ID NO:2), and a 20-base-pair primer, i.e., 5′-[…]-3′ (pUC18 reverse, 1459-1478; SEQ ID NO:3), puc18 being used as a template. The DNA fragment was in a double-stranded state including a complementary strand (the following fragments were in the same state).\nA 5′-Texas Red-labeled DNA fragment (450 bp) (pUC-II, SEQ ID NO:4) was prepared by a PCR method using a 5′-Texas Red-labeled 21-base-pair primer, i.e., 5′-TexRed-[…]-3′ (pUC18 reverse, 1861-1881; SEQ ID NO:5), and a 19-base-pair primer, i.e., 5-TGTAAAACGACGGCCAGTG-3′ (pUC18 forward, 328-345; SEQ ID NO:6), puc18 being used as a template.\nas §2\nThe reaction of compounds (3-2) and (3-3) prepared in the above-described Synthesis Examples with DNA was studied using the long-chain DNA (pUC-II; SEQ ID NO:4, pUC-I′; SEQ ID NO:1). An alkylation reaction was performed for 8 hours. The sequence alkylated was analyzed by polyacrylic gel electrophoresis for sequence determination. […] However, the difference in sequence recognition ability was observed. […] From the stand point of the sequence recognition ability, the molecular design of compound (3-2) was excellent."}, "[11]": {"test_system": "39 cultured human cancer cell lines", "assay": "Anticancer activity screening on 39 cultured human cancer cell lines (Japanese Foundation for Cancer Research)", "conditions": "mean of 39 cultured human cancer cell lines", "text": "Evaluation of the anticancer activity on the 39 cultured human cancer cell lines from breast cancer cell line to prostate cancer cell line was made by screening test performed in The Japanese Foundation for Cancer Research."}, "[12]": {"test_system": "5′-YG(A/T)CR-3′ sequence", "conditions": "low concentration, dimer, both chains, sites 5 base pairs apart; cited from earlier work"}}, "note": "“Also recorded” adds a separate entry of the source.", "data": [{"molecule": "CC(=O)Nc1cn(C)c(C(=O)Nc2cn(C)c(C(=O)Nc3cc(C(=O)Nc4cc(C(=O)NCCC(=O)Nc5cc(C(=O)Nc6cc(C(=O)NCCCC(=O)Nc7cn(C)c(C(=O)Nc8cc(C(=O)NCCC(=O)Nc9cn(C)c(C(=O)Nc%10cc(C(=O)Nc%11ccc%12[nH]c(C(=O)N%13CC%14CC%14%15C%13=CC(=O)c%13ccccc%13%15)cc%12c%11)n(C)c%10)n9)n(C)c8)n7)n(C)c6)n(C)c5)n(C)c4)n(C)c3)n2)n1", "note": "(stereo not shown) [compound (3-6), AcImImPyPyβPyPy-γ-ImPyβImPy-Indole-CBI]", "values": [{"measurement": "alkylated sites (sequence recognition)", "setting": "[1]", "result": "alkylation (site 2) due to 1-bp-mismatch recognition was observed; also recorded: alkylation of AT-rich base sequences (sites 1 and 3) was also observed"}, {"measurement": "efficiency of DNA alkylation", "setting": "[1]", "result": "efficiently alkylated 1,000-base-pair DNA at nanomolar concentrations"}]}, {"molecule": "CC(=O)Nc1cn(C)c(C(=O)Nc2cn(C)c(C(=O)Nc3cc(C(=O)NCCC(=O)Nc4cn(C)c(C(=O)Nc5cc(C(=O)Nc6ccc7[nH]c(C(=O)N8CC9CC9%10C8=CC(=O)c8ccccc8%10)cc7c6)n(C)c5)n4)n(C)c3)n2)n1", "note": "(stereo not drawn) [compound (3-7), AcImImPy-β-ImPy-Indole-CBI]", "values": [{"measurement": "alkylated sites in the presence of compound (6)", "setting": "[2]; compound (6) 500 nM, heterodimer", "result": "alkylation (site 4) based on accurate 10-base-pair recognition was observed"}, {"measurement": "alkylated sites, compound alone", "setting": "[2]; nanomolar concentrations", "result": "efficient alkylation of sites 1 and 2 based on a hairpin mode of recognition and of site 3 based on a linear-chain mode of recognition"}]}, {"molecule": "CC(=O)Nc1cn(C)c(C(=O)Nc2cn(C)c(C(=O)Nc3cn(C)c(C(=O)NCCCC(=O)Nc4cc(C(=O)Nc5cc(C(=O)Nc6ccc7[nH]c(C(=O)N8CC(CCl)c9c8cc(O)c8ccccc98)cc7c6)n(C)c5)n(C)c4)n3)n2)n1", "note": "(stereo not shown) [compound (4-3), AcImImIm-γ-PyPy-Indole-seco-CBI]", "values": [{"measurement": "telomeric-sequence-specific alkylation", "setting": "[3]", "result": "Efficient telomeric-sequence-specific alkylation (5′-ACCCTA-3′) in a hairpin mode of recognition"}]}, {"molecule": "AcImImPyPy-γ-ImPy-Indole-CBI [compound (3-2)]", "values": [{"measurement": "sequence-specific DNA alkylation, alkylated sites", "setting": "[4]", "result": "Sequence-specific DNA alkylation (site 2 and 3: 5′-TGACCA-3′, site 4: 5′-AGACCA-3′, site 5: 5′-TGTCCA-3′)"}, {"measurement": "IC50", "setting": "[5]", "result": 7.43, "unit": "nM"}, {"measurement": "IC50", "setting": "[6]", "result": 53.5, "unit": "nM"}, {"measurement": "anticancer activity against the cancerous cell lines relative to the normal cell lines", "setting": "[7]", "result": "about 10 times"}, {"measurement": "IC50", "setting": "[8]", "result": 59.7, "unit": "nM"}, {"measurement": "IC50", "setting": "[9]", "result": 74.2, "unit": "nM"}, {"measurement": "alkylated sites (sequence recognition ability)", "setting": "[10]", "result": "alkylation in only site 3 (5′-TGACCA-3′) and site 6 (5′-AGTCCA-3′), which were match sequences, was observed"}, {"measurement": "efficiency of DNA alkylation", "setting": "[10]", "result": "efficient DNA alkylation comparable with that of a known Py-Im polyamide having a vinyl linker was observed at nanomolar concentrations"}, {"measurement": "mean log IC50 value of 39 cell lines", "setting": "[11]; log value, FIG. 9", "result": "about −7"}, {"measurement": "IC50", "setting": "[11]; read-out: mean IC50 of 39 cell lines, printed in brackets after the log value", "result": "~100", "unit": "nM"}]}, {"molecule": "ImPyLDu86", "values": [{"measurement": "alkylation efficiency", "setting": "[12]", "result": 70, "unit": "%"}]}]}
